Columns and labels:
Type in all cases: in vivo
Conditions in all cases: 150 g ai/hl
[1] = test system: TYLCV (tomato yellow leaf curl virus); experiment: Foliar use field trial on tomato, infected leaf area by TYLC virus
Procedure: (§1) Two studies were carried out in Elhasanya, Egypt in 2009 on tomato plants of the variety Fayrouz with the main goal to measure efficacy on the whitefly Bemisia tabaci. The plot size was 4.8 m^2 and 6 replicates were used in the trial. Products were applied 3 times on young tomato plants at BBCH stages 14, 17 and 51 at spray intervals between 12 and 19 days. The spray volume was at the first application 350 l/ha and later 500 l/ha. The evaluation of this study was done counting the adult whiteflies (Bemisia tabaci) as well as the nymphs and the eggs in each plot. In addition to the direct whitefly effect, visual symptoms of the virus, mainly TYLCV (tomato yellow leaf curl virus) were evaluated also.
(§2) ASM=Acibenzolar-S-methyl. WG 50=Actigard® 50WG, a water-dispersible granule with the active ingredient ASM CYNT=Cyantraniliprole. WG 40=Cyazypyr®, a water dispersable granule with the active ingredient CYNT. Results on whitefly adults. Trial 1
Evaluation of percentage of infected leaf area by TYLC virus (average of 45 plants evaluated per treatment) Trial 1

[2] = test system: whitefly Bemisia tabaci adults; experiment: Foliar use field trial on tomato, efficacy on whitefly adults
Procedure: as §1, §2

[3] = test system: whitefly Bemisia tabaci nymphs; experiment: Foliar use field trial on tomato, efficacy on whitefly nymphs
Procedure: as §1, §2

Cc1cc(C)c(C2=C(OC(=O)CC(C)(C)C)C3(CCCC3)OC2=O)c(C)c1 [Spiromesifen]
% Infected Surface area with virus / plant ([1]; 5DAA2, Trial 1): 1.1%
% Infected Surface area with virus / plant ([1]; 5DAA2, Trial 2): 1.1%
% Infected Surface area with virus / plant ([1]; 5DAA3, Trial 1): 0.8%
% Infected Surface area with virus / plant ([1]; 5DAA3, Trial 2): 0.8%
% Infected Surface area with virus / plant ([1]; 10DAA3, Trial 1): 7.1%
% Infected Surface area with virus / plant ([1]; 10DAA3, Trial 2): 7.1%
% Infected Surface area with virus / plant ([1]; 15DAA3, Trial 1): 8.8%
% Infected Surface area with virus / plant ([1]; 15DAA3, Trial 2): 8.8%
% Infected Surface area with virus / plant ([1]; 20DAA3, Trial 1): 11.1%
% Infected Surface area with virus / plant ([1]; 20DAA3, Trial 2): 11.1%
% Infected Surface area with virus / plant ([1]; 24DAA3, Trial 1): 11.5%
% Infected Surface area with virus / plant ([1]; 24DAA3, Trial 2): 11.5%
% Efficacy on Adults ([2]; 5DAA1, Trial 1): 61%
% Efficacy on Adults ([2]; 5DAA1, Trial 2): 61%
% Efficacy on Adults ([2]; 5DAA2, Trial 1): 71%
% Efficacy on Adults ([2]; 5DAA2, Trial 2): 71%
% Efficacy on Adults ([2]; 5DAA3, Trial 1): 81%
% Efficacy on Adults ([2]; 5DAA3, Trial 2): 81%
% Efficacy on Adults ([2]; 10DAA1, Trial 1): 43%
% Efficacy on Adults ([2]; 10DAA1, Trial 2): 43%
% Efficacy on Adults ([2]; 10DAA2, Trial 1): 69%
% Efficacy on Adults ([2]; 10DAA2, Trial 2): 69%
% Efficacy on Adults ([2]; 10DAA3, Trial 1): 76%
% Efficacy on Adults ([2]; 10DAA3, Trial 2): 76%
% Efficacy on Adults ([2]; 15DAA3, Trial 1): 67%
% Efficacy on Adults ([2]; 15DAA3, Trial 2): 67%
% Efficacy on Adults ([2]; 20DAA3, Trial 1): 54%
% Efficacy on Adults ([2]; 20DAA3, Trial 2): 54%
% Efficacy on Adults Avg % C ([2]; Avg, Trial 1): 65%
% Efficacy on Nymphs ([3]; 5DAA2, Trial 1): 86%
% Efficacy on Nymphs ([3]; 5DAA2, Trial 2): 86%
% Efficacy on Nymphs ([3]; 5DAA3, Trial 1): 88%
% Efficacy on Nymphs ([3]; 5DAA3, Trial 2): 88%
% Efficacy on Nymphs ([3]; 10DAA2, Trial 1): 85%
% Efficacy on Nymphs ([3]; 10DAA2, Trial 2): 85%
% Efficacy on Nymphs ([3]; 10DAA3, Trial 1): 84%
% Efficacy on Nymphs ([3]; 10DAA3, Trial 2): 84%
% Efficacy on Nymphs ([3]; 15DAA3, Trial 1): 81%
% Efficacy on Nymphs ([3]; 15DAA3, Trial 2): 81%
% Efficacy on Nymphs ([3]; 20DAA3, Trial 1): 76%
% Efficacy on Nymphs ([3]; 20DAA3, Trial 2): 76%
% Efficacy on Nymphs Avg % C ([3]; Avg, Trial 1): 83%

Reference: US20130212744A1, “METHOD OF REDUCING INSECT-VECTORED VIRAL INFECTIONS” (priority 2010, published 2013)
